In patent US20230085307A1, “PYRIDAZINONE COMPOUND AND HERBICIDE” (NISSAN CHEMICAL CORPORATION, priority 2019, published 2023):

Assays:
barnyard grass [1] = assay: Test Example 5: herbicidal effect by foliage application, plastic box (Table 20, symbol H); assay type: in vivo, barnyard grass (Echinochloa crus-galli); settings: foliage application, AAH 320 g/ha, three weeks after application
Outline: (§1)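 Post-emergence foliar test in sterilized diluvial soil. Compound applied as water-diluted emulsion at a predetermined rate to 14-day-old plants; evaluation at three weeks.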

Italian ryegrass [2] = assay: Test Example 4: herbicidal effect by soil treatment (Table 19, symbol K); assay type: in vivo, Italian ryegrass (Lolium multiflorum); settings: AAH 320 g/ha
Outline: (§2)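 Scoring uses the grading scale of an earlier test, three weeks post-application. Treatment consists of spraying a diluted emulsion formulation across the surface of sterilized diluvial soil in which seeds are buried near 1.5 cm deep; boxes are kept in a greenhouse between 25° C. and 30° C.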

persian speedwell [3] = assay: Test Example 5: herbicidal effect by foliage application, plastic box (Table 20, symbol R); assay type: in vivo, Persian speedwell (Veronica persica); settings: foliage application, AAH 320 g/ha, three weeks after application
Outline: as §1

velvetleaf [4] = assay: Test Example 5: herbicidal effect by foliage application, plastic box (Table 20, symbol M); assay type: in vivo, velvetleaf (Abutilon theophrasti); settings: foliage application, AAH 320 g/ha, three weeks after application
Outline: as §1

Chinese sprangletop = assay: Test Example 3: herbicidal effect by foliage application, Wagner pot (Table 18, symbol D); assay type: in vivo, chinese sprangletop (Leptochloa chinensis); settings: 320 g/ha
Outline: (§3)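 Plants were sown in alluvial soil held under 0.1–0.5 cm standing water and grown 14 days in a greenhouse at 25–30 °C. An emulsifiable formulation, water-diluted to the set dose, was then sprayed onto the foliage, and effects were scored three weeks later using previously defined criteria.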

blackgrass [5] = assay: Test Example 4: herbicidal effect by soil treatment (Table 19, symbol J); assay type: in vivo, blackgrass (Alopecurus myosuroides); settings: AAH 320 g/ha
Outline: as §2

velvetleaf [6] = assay: Test Example 4: herbicidal effect by soil treatment (Table 19, symbol M); assay type: in vivo, velvetleaf (Abutilon theophrasti); settings: AAH 320 g/ha
Outline: as §2

redroot pigweed [7] = assay: Test Example 4: herbicidal effect by soil treatment (Table 19, symbol N); assay type: in vivo, redroot pigweed (Amaranthus retroflexus); settings: AAH 320 g/ha
Outline: as §2

windgrass = assay: Test Example 5: herbicidal effect by foliage application, plastic box (Table 20, symbol L); assay type: in vivo, windgrass (Apera spica-venti); settings: foliage application, AAH 320 g/ha, three weeks after application
Outline: as §1

Italian ryegrass [8] = assay: Test Example 5: herbicidal effect by foliage application, plastic box (Table 20, symbol K); assay type: in vivo, Italian ryegrass (Lolium multiflorum); settings: foliage application, AAH 320 g/ha, three weeks after application
Outline: as §1

green foxtail [9] = assay: Test Example 5: herbicidal effect by foliage application, plastic box (Table 20, symbol G); assay type: in vivo, green foxtail (Setaria viridis); settings: foliage application, AAH 320 g/ha, three weeks after application
Outline: as §1

redroot pigweed [10] = assay: Test Example 5: herbicidal effect by foliage application, plastic box (Table 20, symbol N); assay type: in vivo, redroot pigweed (Amaranthus retroflexus); settings: foliage application, AAH 320 g/ha, three weeks after application
Outline: as §1

wild oat [11] = assay: Test Example 4: herbicidal effect by soil treatment (Table 19, symbol I); assay type: in vivo, wild oat (Avena fatua); settings: AAH 320 g/ha
Outline: as §2

southern crabgrass [12] = assay: Test Example 4: herbicidal effect by soil treatment (Table 19, symbol F); assay type: in vivo, southern crabgrass (Digitaria ciliaris); settings: AAH 320 g/ha
Outline: as §2

chickweed [13] = assay: Test Example 4: herbicidal effect by soil treatment (Table 19, symbol P); assay type: in vivo, common chickweed (Stellaria media); settings: AAH 320 g/ha
Outline: as §2

southern crabgrass [14] = assay: Test Example 5: herbicidal effect by foliage application, plastic box (Table 20, symbol F); assay type: in vivo, southern crabgrass (Digitaria ciliaris); settings: foliage application, AAH 320 g/ha, three weeks after application
Outline: as §1

persian speedwell [15] = assay: Test Example 4: herbicidal effect by soil treatment (Table 19, symbol R); assay type: in vivo, Persian speedwell (Veronica persica); settings: AAH 320 g/ha
Source text: [Test Example 4] Herbicidal Effect Test by Soil Treatment
Sterilized diluvial soil was placed in a plastic box having a length of 21 cm, a width of 13 cm, and a depth of 7 cm. The seeds of each of southern crabgrass, green foxtail, barnyard grass, wild oat, blackgrass, Italian ryegrass, windgrass, velvetleaf, redroot pigweed, lambsquarters, chickweed, false cleavers, persian speedwell, corn, soybean, rice, wheat, beet, and rapeseed were sowed in a spot-like manner and covered with the soil having a thickness of about 1.5 cm. Subsequently, the emulsion agent of the compound of the present invention prepared according to Formulation Example 2 was diluted with water so as to achieve a predetermined herbicide amount, and the diluted emulsion agent was uniformly applied to the surface of the soil with a small-sized spray. The plastic box was placed in a greenhouse at 25° C. to 30° C. for growth of the plants. Three weeks after the herbicide application, the effect of the herbicide on each plant was evaluated according to the criteria of Test Example 1.

blackgrass [16] = assay: Test Example 5: herbicidal effect by foliage application, plastic box (Table 20, symbol J); assay type: in vivo, blackgrass (Alopecurus myosuroides); settings: foliage application, AAH 320 g/ha, three weeks after application
Outline: as §1

barnyard grass [17] = assay: Test Example 3: herbicidal effect by foliage application, Wagner pot (Table 18, symbol H); assay type: in vivo, barnyard grass (Echinochloa crus-galli); settings: 320 g/ha
Outline: as §3

lambsquarters [18] = assay: Test Example 4: herbicidal effect by soil treatment (Table 19, symbol O); assay type: in vivo, lambsquarters (Chenopodium album); settings: AAH 320 g/ha
Outline: as §2

wild oat [19] = assay: Test Example 5: herbicidal effect by foliage application, plastic box (Table 20, symbol I); assay type: in vivo, wild oat (Avena fatua); settings: foliage application, AAH 320 g/ha, three weeks after application
Outline: as §1

rice flat sedge = assay: Test Example 3: herbicidal effect by foliage application, Wagner pot (Table 18, symbol E); assay type: in vivo, rice flat sedge (Cyperus iria); settings: 320 g/ha
Outline: as §3

chickweed [20] = assay: Test Example 5: herbicidal effect by foliage application, plastic box (Table 20, symbol P); assay type: in vivo, common chickweed (Stellaria media); settings: foliage application, AAH 320 g/ha, three weeks after application
Outline: as §1

green foxtail [21] = assay: Test Example 4: herbicidal effect by soil treatment (Table 19, symbol G); assay type: in vivo, green foxtail (Setaria viridis); settings: AAH 320 g/ha
Outline: as §2

lambsquarters [22] = assay: Test Example 5: herbicidal effect by foliage application, plastic box (Table 20, symbol O); assay type: in vivo, lambsquarters (Chenopodium album); settings: foliage application, AAH 320 g/ha, three weeks after application
Outline: as §1

barnyard grass [23] = assay: Test Example 4: herbicidal effect by soil treatment (Table 19, symbol H); assay type: in vivo, barnyard grass (Echinochloa crus-galli); settings: AAH 320 g/ha
Outline: as §2

Structure (SMILES): COc1ccc(Cl)cc1-c1sc2ccccc2c1-c1c(O)c(OC)nn(C)c1=O [1-178]
- H: barnyard grass, herbicidal effect (barnyard grass [1]): 4 (Herbicidal rate of 70% or more and less than 90%)
- K: Italian ryegrass, herbicidal effect rating (Italian ryegrass [2]): 0 (Herbicidal rate of 5% or less (almost no effect))
- R: persian speedwell, herbicidal effect (persian speedwell [3]): 4 (Herbicidal rate of 70% or more and less than 90%)
- M: velvetleaf, herbicidal effect (velvetleaf [4]): 3 (Herbicidal rate of 40% or more and less than 70%)
- herbicidal effect on D (Chinese sprangletop), rating 0-5 (Chinese sprangletop): 0 (Herbicidal rate of 5% or less (almost no effect))
- J: blackgrass, herbicidal effect rating (blackgrass [5]): 1 (Herbicidal rate of 5% or more and less than 20%)
- M: velvetleaf, herbicidal effect rating (velvetleaf [6]): 0 (Herbicidal rate of 5% or less (almost no effect))
- N: redroot pigweed, herbicidal effect rating (redroot pigweed [7]): 4 (Herbicidal rate of 70% or more and less than 90%)
- L: windgrass, herbicidal effect (windgrass): 4 (Herbicidal rate of 70% or more and less than 90%)
- K: Italian ryegrass, herbicidal effect (Italian ryegrass [8]): 0 (Herbicidal rate of 5% or less (almost no effect))
- G: green foxtail, herbicidal effect (green foxtail [9]): 4 (Herbicidal rate of 70% or more and less than 90%)
- N: redroot pigweed, herbicidal effect (redroot pigweed [10]): 5 (Herbicidal rate of 90% or more (almost completely withered))
- I: wild oat, herbicidal effect rating (wild oat [11]): 0 (Herbicidal rate of 5% or less (almost no effect))
- F: southern crabgrass, herbicidal effect rating (southern crabgrass [12]): 0 (Herbicidal rate of 5% or less (almost no effect))
- P: chickweed, herbicidal effect rating (chickweed [13]): 4 (Herbicidal rate of 70% or more and less than 90%)
- F: southern crabgrass, herbicidal effect (southern crabgrass [14]): 3 (Herbicidal rate of 40% or more and less than 70%)
- R: persian speedwell, herbicidal effect rating (persian speedwell [15]): 4 (Herbicidal rate of 70% or more and less than 90%)
- J: blackgrass, herbicidal effect (blackgrass [16]): 1 (Herbicidal rate of 5% or more and less than 20%)
- herbicidal effect on H (barnyard grass), rating 0-5 (barnyard grass [17]): 4 (Herbicidal rate of 70% or more and less than 90%)
- O: lambsquarters, herbicidal effect rating (lambsquarters [18]): 0 (Herbicidal rate of 5% or less (almost no effect))
- I: wild oat, herbicidal effect (wild oat [19]): 4 (Herbicidal rate of 70% or more and less than 90%)
- herbicidal effect on E (rice flat sedge), rating 0-5 (rice flat sedge): 5 (Herbicidal rate of 90% or more (almost completely withered))
- P: chickweed, herbicidal effect (chickweed [20]): 5 (Herbicidal rate of 90% or more (almost completely withered))
- G: green foxtail, herbicidal effect rating (green foxtail [21]): 0 (Herbicidal rate of 5% or less (almost no effect))
- O: lambsquarters, herbicidal effect (lambsquarters [22]): 4 (Herbicidal rate of 70% or more and less than 90%)
- H: barnyard grass, herbicidal effect rating (barnyard grass [23]): 0 (Herbicidal rate of 5% or less (almost no effect))
